Assay results: article PMC6270778, “Novel Cinnamic Acid Derivatives as Antioxidant and Anticancer Agents: Design, Synthesis and Modeling Studies” (Molecules, 2014)
Where “and” joins values, the source holds several entries; their conditions need not be identical. Identical values can stand only once.

Columns and labels:
MRC-5 normal cells = test: SRB cytotoxicity assay, MRC-5 normal cells; format: cell-based; settings: Homo sapiens, MRC5, 50% growth inhibition, 48 h exposure
Description: Thus, we conducted in vitro studies in two colon cancer cell lines (HT-29 and HCT-15) reported time and dose-dependent stimulation of cell proliferation by LTB4 and 12-HETE [46]. The synthesized acids have been tested in five different human tumour cell lines: HT-29 (colon), A-549 (lung), OAW-42 (ovarian), MDA-MB-231 (breast), HeLa (immortal cells from cervical cancer) and MRC-5 normal cells.
Cell passages were carried out by detaching adherent, logarithmically growing cells after addition of 2–3 mL of a mixture of 0.05% solution of trypsin (Gibco, 1:250) in phosphate-buffered saline (PBS) with 0.02% EDTA and incubation for 3–5 min at 37 °C. For the experiments, cells were plated (100 μL containing 10,000 cells/well) in 96-well flat-bottom microplates microplates (Costar-Corning, Acton, MA 01720, USA) so that untreated cells were in exponential growth phase at the time of cytotoxicity evaluation. Cells were left for 24 h at 37 °C to resume exponential growth and stabilization and afterwards exposed to tested agents for 48 h by the addition of an equal volume (100 μL) of either complete culture medium (control wells), or twice the final drug concentrations diluted in complete culture medium (test wells). Drug cytotoxicity was measured by means of the SRB colorimetric assay estimating the survival fractions (SF) as the percent of control (untreated cells) absorbance. The SRB assay was carried out as previously described and modified by our group. In brief, culture medium was aspirated prior to fixation using a microplate-multiwash device (Tri-Continent Scientific, Inc., Grass Valley, CA, USA) and 50 μL of 10% cold (4 °C) trichloroacetic acid (TCA) were gently added to the wells. Microplates were left for 30 min at 4 °C, washed five times with deionized water and left to dry at room temperature for at least 24 h. Subsequently, 70 μL of 0.4% (w/v) sulforhodamine B (Sigma) in 1% acetic acid solution were added to each well and left at room temperature for 20 min. SRB was removed and the plates were washed five times with 1% acetic acid before air drying. Bound SRB was solubilized with 200 μL of 10 mM unbuffered Tris-base solution and plates were left on a plate shaker for at least 10 min. Absorbance was read in a 96-well plate reader at 492 nm subtracting the background measurement at 620 nm. The test optical density (OD) value was defined as the absorbance of each individual well, minus the blank value (“blank” is the mean optical density of the background control wells, n = 8). Mean values and the coefficient of variation (CV) from six replicate wells were calculated automatically. Results were expressed as the “survival fraction” (SF), as shown below.
For each tested compound a dose-effect curve was produced. Sextuplicate determinations gave a CV (Standard Deviation/mean %) of much less than 10%, resulting in standard error (SE) which was very low in all cases. The data showing inhibition of cellular growth are expressed as the fraction of cells that remains unaffected (fu) (survival fraction, SF), which is derived from the following equation: fu = ODx/ODc where ODx and ODc represent the test and the control optical density, respectively.

[1] = ABTS+ decolorization assay; settings: 0.1 mM
Description: The ABTS^•+ is derived from the oxidation of ABTS by potassium persulfate. It is a decolorization assay. The addition of electron-donating antioxidants leads to ABTS^•+ reduction. The chemistry taking place involves the direct generation of the ABTS^•+ with no involvement of an intermediary radical.
In this assay, ethanol is used for the dilution of the ABTS^+• solution. ABTS is dissolved in water to a 7 mM and reacts with 2.45 mM […] to produce the ABTS radical cation (ABTS^+•) by allowing the mixture to stand in the dark at room temperature for 12–16 h before use. Ten μL of diluted ABTS^+• solution (734 nm) is added to 10 μL of antioxidant compounds or Trolox standards (final concentration 0–0.1 mM) in ethanol and the absorbance is measured at 30 °C exactly 1 min after the initial mixing (Table 3).

soybean lipoxygenase = target: T1, soybean lipoxygenase (Glycine max, UniProt P08170); test: Soybean lipoxygenase inhibition study in vitro (UV-based enzyme assay); format: biochemical; settings: for IC50: sodium linoleate 0.1 mM, read-out: LOX IC50 (±SD); for inhibition at 10 µM: 0.01 mM, read-out: LOX inhibition % (±SD)
T1 construct: purchased Sigma Chemical, Co. (St. Louis, MO, USA)
T1 sequence (P08170 1-839): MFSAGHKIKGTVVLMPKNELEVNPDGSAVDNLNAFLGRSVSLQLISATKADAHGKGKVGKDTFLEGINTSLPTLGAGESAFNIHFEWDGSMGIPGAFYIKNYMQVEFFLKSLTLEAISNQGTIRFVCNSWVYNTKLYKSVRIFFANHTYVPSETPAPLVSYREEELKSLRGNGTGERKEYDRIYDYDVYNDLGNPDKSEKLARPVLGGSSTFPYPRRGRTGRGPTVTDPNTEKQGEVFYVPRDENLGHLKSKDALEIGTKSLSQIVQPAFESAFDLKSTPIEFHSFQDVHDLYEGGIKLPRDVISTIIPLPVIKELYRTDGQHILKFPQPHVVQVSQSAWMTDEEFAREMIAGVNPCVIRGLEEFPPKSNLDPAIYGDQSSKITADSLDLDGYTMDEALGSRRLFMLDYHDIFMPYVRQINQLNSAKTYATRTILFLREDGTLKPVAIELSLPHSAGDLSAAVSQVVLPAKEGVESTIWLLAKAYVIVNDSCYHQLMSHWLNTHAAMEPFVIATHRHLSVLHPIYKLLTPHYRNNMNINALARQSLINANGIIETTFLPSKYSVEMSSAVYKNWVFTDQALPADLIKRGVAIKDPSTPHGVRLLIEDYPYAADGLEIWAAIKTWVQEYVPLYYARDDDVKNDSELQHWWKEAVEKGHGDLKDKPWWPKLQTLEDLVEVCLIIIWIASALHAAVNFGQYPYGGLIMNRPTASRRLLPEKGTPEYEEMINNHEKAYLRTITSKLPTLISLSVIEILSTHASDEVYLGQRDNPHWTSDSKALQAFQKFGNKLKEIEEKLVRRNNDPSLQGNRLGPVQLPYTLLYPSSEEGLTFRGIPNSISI
Description: The evaluation of the novel acids against soybean lipoxygenase LOX was accomplished by the UV-based enzyme assay of Pontiki and Hadjipavlou-Litina. This assay may be used as a qualitative or semi-quantitative screen for such activity.
In vitro inhibitory LOX assay is accomplished as described previously. The novel derivatives for testing (stock solutions 10 mM in DMSO) were incubated at room temperature with sodium linoleate (0.1 mM) and 0.2 mL of LOX enzyme solution (1/9 × 10^−4w/v in saline). The conversion of sodium linoleate to 13-hydroperoxylinoleic acid was measured at 234 nm and compared with the reference inhibitor. Several concentrations were used for the IC50 determination (Table 2).

Compound	IC50 (soybean lipoxygenase)	inhibition at 10 µM (soybean lipoxygenase)	IC50 (MRC-5 normal cells)	ABTS+· (%) (±SD) [1]
N#Cc1ccc(C=C(C(=O)O)c2ccccc2)cc1 [Compound 1i, 3-(4-Cyanophenyl)-2-phenylacrylic acid]	60 ± 0.4 µM	–	222 ± 1.3 µM	26 ± 0.4%
N#Cc1ccc(C=CC(=O)O)cc1 [Compound 1ii, 3-(4-Cyanophenyl)acrylic acid]	–	27%	> 240 µM	47.4% and 47 ± 0.8%
O=C(O)C=CC=Cc1ccc([N+](=O)[O-])cc1 [Compound 2ii, 5-(4-Nitrophenyl)penta-2,4-dienoic acid]	–	31%	240 ± 1 µM	35 ± 0.9%
O=C(O)C=CC=Cc1ccccc1 [Compound 3ii, 5-Phenylpenta-2,4-dienoic acid]	–	24%	240 ± 1.8 µM	31 ± 1.1%
O=C(O)C=CC(Br)=Cc1ccccc1 [Compound 4ii, 4-Bromo-5-phenylpenta-2,4-dienoic acid]	10 ± 0.05 µM	–	24 ± 0.6 µM	26 ± 0.4%

Second part, led by results:

IC50 (soybean lipoxygenase)	inhibition at 10 µM (soybean lipoxygenase)	Compound	IC50 (MRC-5 normal cells)	ABTS+· (%) (±SD) [1]
66.5 ± 1.2 µM	–	O=C(O)C(=CC=Cc1ccc([N+](=O)[O-])cc1)c1ccccc1 [Compound 2i, 5-(4-Nitrophenyl)-2-phenylpenta-2,4-dienoic acid]	96.3 ± 1.1 µM	26 ± 0.5%
74 ± 1.7 µM	–	O=C(O)C(=CC=Cc1ccccc1)c1ccccc1 [Compound 3i, 2,5-Diphenylpenta-2,4-dienoic acid]	> 240 µM	26 ± 0.8%
74 ± 1.8 µM	–	O=C(O)C(=CC(Br)=Cc1ccccc1)c1ccccc1 [Compound 4i, 4-Bromo-2,5-diphenylpenta-2,4-dienoic acid]	92 ± 1.3 µM	24 ± 0.5%
